Patent publication US6469005B1, “Propargylether derivatives” (priority 1999, dated 2002)

Key:
Plasmopara viticola = test: D-1: Action against Plasmopara viticola on vines (residual-protective and residual-curative action); type: in vivo; conditions: vine seedlings, spray mixture 0.02% active ingredient; protective (infected after 24 hours) or curative (sprayed 24 hours after infection); evaluated after 6 days
Experimental: D-1: Action Against Plasmopara viticola on Vines a) Residual-Protective Action
Vine seedlings are sprayed at the 4- to 5-leaf stage with a spray mixture (0.02% active ingredient) prepared from a wettable powder formulation of the test compound. After 24 hours, the treated plants are infected with a sporangia suspension of the fungus. Fungus infestation is evaluated after incubation for 6 days at 95-100% relative humidity and +20° C. […]
b) Residual-curative Action
Vine seedlings are infected at the 4- to 5-leaf stage with a sporangia suspension of the fungus. After incubation for 24 hours in a humidity chamber at 95-100% relative humidity and +20° C., the infected plants are dried and sprayed with a spray mixture (0.02% active ingredient) prepared from a wettable powder formulation of the test compound. After the spray coating has dried, the treated plants are placed in the humidity chamber again.
Fungus infestation is evaluated 6 days after infection.

Phytophthora [1] = test: D-3: Action against Phytophthora on potato plants (residual-protective and systemic action); type: in vivo; conditions: potato plants (Bintje variety), 0.02% active ingredient; sprayed or watered (systemic), infected after 48 hours, evaluated after 4 days
Experimental: ID-3: Action Against Phytophthora on Potato Plants
(§1) a) Residual-protective Action
2-3 week old potato plants (Bintje variety) are sprayed with a spray mixture (0.02% active ingredient) prepared from a wettable powder formulation of the test compound. After 48 hours, the treated plants are infected with a sporangia suspension of the fungus. Fungus infestation is evaluated after incubation of the infected plants for 4 days at 90-100% relative humidity and +20° C.
2-3 week old potato plants (Bintje variety) are watered with a spray mixture (0.02% active ingredient based on the volume of the soil) prepared from a wettable powder formulation of the test compound. […] After 48 hours, the treated plants are infected with a sporangia suspension of the fungus. Fungus infestation is evaluated after incubation of the infected plants for 4 days at 90-100% relative humidity and +20° C. Fungal infestation is effectively controlled with compounds of Tables 1 to 47.

Phytophthora [2] = test: D-2: Action against Phytophthora on tomato plants (residual-protective and systemic action); type: in vivo; conditions: 0.02% active ingredient, sprayed (infected after 48 hours, evaluated after 5 days) or watered, systemic (infected after 96 hours, evaluated after 4 days)
Experimental: D-2: Action Against Phytophthora on Tomato Plants
as §1
After a cultivation period of 3 weeks, tomato plants are sprayed with a spray mixture (0.02% active ingredient) prepared from a wettable powder formulation of the test compound. After 48 hours, the treated plants are infected with a sporangia suspension of the fungus. Fungus infestation is evaluated after incubation of the infected plants for 5 days at 90-100% relative humidity and +20° C.
After a cultivation period of 3 weeks, tomato plants are watered with a spray mixture (0.02% active ingredient based on the volume of the soil) prepared from a wettable powder formulation of the test compound. […] After 96 hours, the treated plants are infected with a sporangia suspension of the fungus. Fungus infestation is evaluated after incubation of the infected plants for 4 days at 90-100% relative humidity and +20° C.

| SMILES | melting point | fungal infestation (Plasmopara viticola on vines) (Plasmopara viticola) | fungal infestation (Phytophthora on potato plants) (Phytophthora [1]) | fungal infestation (Phytophthora on tomato plants) (Phytophthora [2]) |
| --- | --- | --- | --- | --- |
| C#CCOc1ccc(CCNC(=O)C(=O)c2ccc(-c3ccc(Cl)cc3)cc2)cc1OC | 122 to 124 °C |  |  |  |
| COc1cc(CCNC(=O)[C@H](NC(=O)OC(C)(C)C)C(C)C)ccc1OCC#Cc1ccc(Cl)cc1 (stereo in doubt) | 141 to 142 °C |  |  |  |
| C#CCOc1ccc(CCNC(=O)C(O)c2ccc(Cl)c(Cl)c2)cc1OC (stereo not drawn) [Compound E1.01, 2-(3,4-Dichloro-phenyl)-2-hydroxy-N-[2-(3-methoxy-4-prop-2-ynyloxy-phenyl)-ethyl]-acetamide] |  | completely inhibit fungal infestation | completely inhibit fungal infestation | completely inhibit fungal infestation |
| CCC#CCOc1ccc(CCNC(=O)C(O)c2ccc(Cl)c(Cl)c2)cc1OC (stereo not drawn) [Compound E1.02, 2-(3,4-Dichloro-phenyl)-2-hydroxy-N-[2-(3-methoxy-4-pent-2-ynyloxy-phenyl)-ethyl]-acetamide] |  | completely inhibit fungal infestation | completely inhibit fungal infestation | completely inhibit fungal infestation |
| CCC#CCOc1ccc(CCNC(=O)C(=O)c2ccc(Cl)c(Cl)c2)cc1OC [Compound E2.02, 2-(3,4-Dichloro-phenyl)-N-[2-(3-methoxy-4-pent-2-ynyloxy-phenyl)-ethyl]-2-oxo-acetamide] | 94 to 95 °C | completely inhibit fungal infestation |  | completely inhibit fungal infestation |
| C#CCOc1ccc(CCNC(=O)C(O)c2ccc(-c3ccc(C(F)(F)F)cc3)cc2)cc1OC (stereo not drawn) [Compound E3.03, 2-(4′-Trifluoro-biphenyl-4-yl)-2-hydroxy-N-[2-(3-methoxy-4-prop-2-ynyloxy-phenyl)-ethyl]-acetamide] |  | completely inhibit fungal infestation |  | completely inhibit fungal infestation |
| C#CCOc1ccc(CCNC(=O)C(OC(=O)C(=O)OC)c2ccc(Br)cc2)cc1OC (stereo not drawn) [Compound E4.01, 2-(4-Bromo-phenyl)-2-methyloxalyloxy-N-[2-(3-methoxy-4-prop-2-ynyloxy-phenyl)-ethyl]-acetamide] |  | completely inhibit fungal infestation |  | completely inhibit fungal infestation |
